The values below come from patent EP4741386A1 (Jiangsu Yahong Meditech Co., Ltd., priority 2023, dated 2025).

The test deals with T1, Recombinant human His6-USP1/His6-UAF1 complex protein (Homo sapiens, UniProt O94782).
T1 construct: His6; purchased R&D E-568-050
Kind of test: In vitro inhibitory activity against USP1 (Ubiquitin Rhodamine 110 fluorescence detection, 384-well plate). The format is biochemical. The settings on record: Ub-Rho substrate, 1 hour pre-incubation, read after 30 minutes. The protocol:
Test Example 1: In vitro inhibitory activity against USP1 […]
Experimental object: to screen compounds with inhibitory activity against USP1 […] by a fluorescence detection method, using a 384-well plate.
Experimental materials: Recombinant human His6-USP1/His6-UAF1 complex protein (R&D, Cat. No.: E-568-050), Ubiquitin Rhodamine 110 protein (Ub-Rho) (R&D, Cat. No.: U-555-050), 384-well plate (Perkin Elmer, Cat. No.: 6007279); all compounds were dissolved in 100% DMSO to obtain 50 mM stock solutions.
• 1) Preparation of 1 × assay buffer: 1 × assay buffer (modified Tris buffer) was prepared; • 2) Dilution of compounds: the compounds were transferred to an assay plate via Echo.

T1 sequence (O94782 whole entry): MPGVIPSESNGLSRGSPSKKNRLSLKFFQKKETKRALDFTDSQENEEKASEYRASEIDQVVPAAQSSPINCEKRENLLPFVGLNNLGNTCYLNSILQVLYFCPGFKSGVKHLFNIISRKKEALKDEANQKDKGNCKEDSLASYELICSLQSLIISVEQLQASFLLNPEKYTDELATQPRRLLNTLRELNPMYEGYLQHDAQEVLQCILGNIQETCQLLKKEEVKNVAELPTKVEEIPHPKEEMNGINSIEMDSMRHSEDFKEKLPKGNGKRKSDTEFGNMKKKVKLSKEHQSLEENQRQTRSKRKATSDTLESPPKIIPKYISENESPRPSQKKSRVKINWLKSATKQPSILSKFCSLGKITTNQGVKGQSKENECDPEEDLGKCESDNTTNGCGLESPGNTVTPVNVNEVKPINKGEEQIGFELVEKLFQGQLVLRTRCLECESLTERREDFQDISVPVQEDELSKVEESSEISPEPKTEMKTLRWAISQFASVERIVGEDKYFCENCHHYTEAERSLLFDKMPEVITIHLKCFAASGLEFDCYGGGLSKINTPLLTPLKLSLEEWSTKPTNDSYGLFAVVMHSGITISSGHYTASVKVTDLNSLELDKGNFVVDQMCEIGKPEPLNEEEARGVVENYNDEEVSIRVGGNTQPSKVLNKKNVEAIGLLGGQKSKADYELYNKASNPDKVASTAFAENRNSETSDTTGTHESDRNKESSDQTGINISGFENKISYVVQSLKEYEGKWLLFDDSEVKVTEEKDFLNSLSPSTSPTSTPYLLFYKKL
T1 sequence (Q8TAF3 whole entry partner): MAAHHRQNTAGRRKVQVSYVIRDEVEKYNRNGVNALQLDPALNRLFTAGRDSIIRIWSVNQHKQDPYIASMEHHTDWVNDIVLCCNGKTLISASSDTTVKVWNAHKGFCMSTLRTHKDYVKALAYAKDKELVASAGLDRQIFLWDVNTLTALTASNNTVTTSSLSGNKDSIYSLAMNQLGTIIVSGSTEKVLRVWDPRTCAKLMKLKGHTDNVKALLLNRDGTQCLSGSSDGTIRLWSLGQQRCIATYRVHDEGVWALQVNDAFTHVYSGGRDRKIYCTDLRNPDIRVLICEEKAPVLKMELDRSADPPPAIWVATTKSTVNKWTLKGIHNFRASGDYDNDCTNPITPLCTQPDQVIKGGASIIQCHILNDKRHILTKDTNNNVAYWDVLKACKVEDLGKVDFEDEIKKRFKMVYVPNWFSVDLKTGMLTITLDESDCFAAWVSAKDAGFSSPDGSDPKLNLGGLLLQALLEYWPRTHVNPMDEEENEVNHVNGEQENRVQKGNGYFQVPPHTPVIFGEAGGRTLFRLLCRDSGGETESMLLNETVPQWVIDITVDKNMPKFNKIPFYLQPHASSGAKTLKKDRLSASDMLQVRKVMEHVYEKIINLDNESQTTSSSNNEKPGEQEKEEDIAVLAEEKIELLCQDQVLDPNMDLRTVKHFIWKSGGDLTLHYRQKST

For the compound `COc1cnc(-c2c(C)ncn2C(C)C)nc1NCc1ccc(-c2nc(C(F)(F)F)cn2C)cc1` [Example 147, 2-(1-Isopropyl-4-methyl-1H-imidazol-5-yl)-5-methoxy-N-(4-(1-methyl-4-(trifluoromethyl)-1H-imidazol-2-yl)benzyl)pyrimidin-4-amine], the IC50 came out at 0.364 µM.

Consider `Cc1ncn(C(C)C)c1-c1nc(NCc2ccc(-c3nc(C(F)(F)F)cn3C)cc2)c2occc2n1` [Example 149, 2-(1-Isopropyl-4-methyl-1H-imidazol-5-yl)-N-(4-(1-methyl-4-(trifluoromethyl)-1H-imidazol-2-yl)benzyl)furo[3,2-d]pyrimidin-4-amine], for which the IC50 turned out to be 0.0692 µM.

`Cc1ncn(C(C)C)c1-c1nc(NCC23CCC(c4ccc(C(F)(F)F)cn4)(CC2)CC3)c2occc2n1` [Example 150, 2-(1-Isopropyl-4-methyl-1H-imidazol-5-yl)-N-((4-(5-(trifluoromethyl)pyridin-2-yl)bicyclo[2.2.2]octan-1-yl)methyl)furo[3,2-d]pyrimidin-4-amine]: the concentration for half-maximal inhibition (IC50) stood at 0.431 µM.

On to `COc1cnc(-c2c(OC)cnn2C(C)C)nc1N(C)CC1CCN(c2ccccn2)CC1` [Example 177, 2-(1-Isopropyl-4-methoxy-1H-pyrazol-5-yl)-5-methoxy-N-methyl-N-((1-(pyridin-2-yl)piperidin-4-yl)methyl)pyrimidin-4-amine], for which the IC50 was 0.075 µM.

In the case of `COc1cnc(-c2c(OC)cnn2C(C)C)nc1NCc1ccc(-c2ccccn2)cc1` [Example 178, 2-(1-Isopropyl-4-methoxy-1H-pyrazol-5-yl)-5-methoxy-N-(4-(pyridin-2-yl)benzyl)pyrimidin-4-amine], the half-maximal inhibitory concentration (IC50) was 0.11 µM.

With `COc1cnn(C(C)C)c1-c1nc(NCc2ccc(-c3ccccn3)cc2)c2occc2n1` [Example 181, 2-(1-Isopropyl-4-methoxy-1H-pyrazol-5-yl)-N-(4-(pyridin-2-yl)benzyl)furo[3,2-d]pyrimidin-4-amine], the IC50 was 0.027 µM.

Consider `COc1cnc(-c2c(OC)cnn2C2CC2)nc1NCc1ccc(-c2ccccn2)cc1` [Example 183, 2-(1-Cyclopropyl-4-methoxy-1H-pyrazol-5-yl)-5-methoxy-N-(4-(pyridin-2-yl)benzyl)pyrimidin-4-amine], for which the IC50 was found to be 0.164 µM.

Turning to `COc1cnc(-c2c(OC)cnn2C2CC2)nc1NCC1CCN(c2nc(C(F)(F)F)cn2C)CC1` [Example 184, 2-(1-Cyclopropyl-4-methoxy-1H-pyrazol-5-yl)-5-methoxy-N-((1-(1-methyl-4-(trifluoromethyl)-1H-imidazol-2-yl)piperidin-4-yl)methyl)pyrimidin-4-amine], the IC50 is 0.094 µM.

Take `COc1cnc(-c2c(C)noc2C(C)C)nc1N(C)CC1CCN(c2ccccn2)CC1` [Example 186, 2-(5-Isopropyl-3-methylisoxazol-4-yl)-5-methoxy-N-methyl-N-((1-(pyridin-2-yl)piperidin-4-yl)methyl)pyrimidin-4-amine]: the IC50 amounted to 0.066 µM.

As for `COc1cnc(-c2c(C)noc2C(C)C)nc1NCC1CCN(c2nc(C(F)(F)F)cn2C)CC1` [Example 187, 2-(5-Isopropyl-3-methylisoxazol-4-yl)-5-methoxy-N-((1-(1-methyl-4-(trifluoromethyl)-1H-imidazol-2-yl)piperidin-4-yl)methyl)pyrimidin-4-amine], the IC50 amounted to 0.0235 µM.

Take `COc1cnc(-c2c(C)noc2C(C)C)nc1NCc1ccc(-c2nc(C(F)(F)F)cn2C)cc1` [Example 188, 2-(5-Isopropyl-3-methylisoxazol-4-yl)-5-methoxy-N-(4-(1-methyl-4-(trifluoromethyl)-1H-imidazol-2-vl)benzyl)pyrimidin-4-amine]: the IC50 is 0.015 µM.

As to `COc1cnc(-c2cncnc2C2CC2)nc1N(C)Cc1ccc(-c2nc(C(F)(F)F)cn2C)cc1` [Example 193, 4'-Cyclopropyl-5-methoxy-N-methyl-N-(4-(1-methyl-4-(trifluoromethyl)-1H-imidazol-2-yl)benzyl)-[2,5'-bipyrimidin]-4-amine], the concentration for half-maximal inhibition (IC50) was 0.087 µM.

Regarding `COc1cnc(-c2cncnc2C2CC2)nc1NCc1ccc(-c2nc(C(F)F)cn2C)cc1` [Example 195, 4'-Cyclopropyl-N-(4-(4-(difluoromethyl)-1-methyl-1H-imidazol-2-yl)benzyl)-5-methoxy-[2,5'-bipyrimidin]-4-amine], the half-maximal inhibitory concentration (IC50) worked out at 0.243 µM.

Regarding `Cn1cc(C(F)F)nc1-c1ccc(CNc2nc(-c3cncnc3C3CC3)nc3ccoc23)cc1` [Example 197, 2-(4-Cyclopropylpyrimidin-5-yl)-N-(4-(4-(difluoromethyl)-1-methyl-1H-imidazol-2-yl)benzyl)furo[3,2-d]pyrimidin-4-amine], the half-inhibitory concentration (IC50) came to 0.133 µM.

As for `COc1cnc(-c2c(C)cnn2C2CC2)nc1N(O)Cc1ccc(-c2nc(C(F)(F)F)cn2C)cc1` [Example 205, N-(2-(1-cyclopropyl-4-methyl-1H-pyrazol-5-yl)-5-methoxypyrimidin-4-yl)-N-(4-(1-methyl-4-(trifluoromethyl)-1H-imidazol-2-yl)benzyl)hydroxylamine], the half-maximal inhibitory concentration (IC50) was 0.043 µM.

With `COc1cnc(-c2c(OC)ncnc2C2CC2)nc1N(C#N)Cc1ccc(-c2nc(C(F)(F)F)cn2C)cc1` [Example 206, N-(4'-cyclopropyl-5,6'-dimethoxy-[2,5'-bipyrimidin]-4-yl)-N-(4-(1-methyl-4-(trifluoromethyl)-1H-imidazol-2-yl)benzyl)cyanamide], the half-maximal inhibitory concentration (IC50) is 0.0035 µM.

As for `COc1cnc(-c2c(Cl)cnn2C(C)C)nc1N(C)CC12CCC(c3nc(C(F)(F)F)cn3C)(CC1)OC2` [Example 211, 2-(4-chloro-1-isopropyl-1H-pyrazol-5-yl)-5-methoxy-N-methyl-N-((1-(1-methyl-4-(trifluoromethyl)-1H-imidazol-2-yl)-2-oxabicyclo [2.2.2]octan-4-yl)methyl)pyrimidin-4-amine], the IC50 was determined as 0.0061 µM.

With `COc1cnc(-c2c(OC)ncnc2C2CC2)nc1N(C)CC12CCC(c3nc(C(F)(F)F)cn3C)(CC1)OC2` [Example 212, 4'-cyclopropyl-5,6'-dimethoxy-N-methyl-N-((1-(1-methyl-4-(trifluoromethyl)-1H-imidazol-2-yl)-2-oxabicyclo[2.2.2]octan-4-yl)methyl)-[2,5'-bipyrimidin]-4-amine], the half-maximal inhibitory concentration (IC50) worked out at 0.019 µM.

On to `[2H]C([2H])([2H])Oc1ncnc(C2CC2)c1-c1ncc(OC)c(N(C)CC23CCC(c4nc(C(F)(F)F)cn4C)(CC2)CC3)n1` [Example S9, 4'-Cyclopropyl-5-methoxy-6'-(methoxy-D3)-N-methyl-N-((4-(1-methyl-4-(trifluoromethyl)-1H-imidazol-2-yl)bicyclo[2.2.2]oct-1-yl)methyl)-[2,5'-bipyrimidin]-4-amine], for which the concentration for half-maximal inhibition (IC50) is 0.0035 µM.

As for `COc1cnc(-c2c(OC)ncnc2C2CC2)nc1N(C)CC12CCC(c3nc(C(F)(F)F)cn3C)(CC1)OC2` [Example S10, 4'-Cyclopropyl-5,6'-dimethoxy-N-methyl-N-((1-(1-methyl-4-(trifluoromethyl)-1H-imidazol-2-yl)-2-oxabicyclo[2.2.2]oct-4-yl)methyl)-[2,5'-bipyrimidin]-4-amine], the IC50 amounted to 0.019 µM.

On to `COc1cnc(-c2c(Cl)cnn2C(C)C)nc1NCC12CCC(c3nc(C(F)(F)F)cn3C3CCC3)(CC1)OC2` [Example S11, 2-(4-Chloro-1-isopropyl-1H-pyrazol-5-yl)-N-((1-(1-cyclobutyl-4-(trifluoromethyl)-1H-imidazol-2-yl)-2-oxabicyclo[2.2.2]oct-4-yl)methyl)-5-methoxypyrimidin-4-amine], for which the IC50 is 0.0061 µM.
